From US20110306547A1, “LHRH - ANTAGONISTS IN THE TREATMENT OF FERTILITY DISORDERS” (Zentaris GmbH, priority 1996, published 2011)
Where a SMILES comes first, the peptide text is derived from it. [ ]: non-standard residue; d: D form. dPhe(4-Cl) = N[C@H](Cc1ccc(Cl)cc1)C(=O)O; d2Nal = N[C@H](Cc1ccc2ccccc2c1)C(=O)O; dCit = NC(=O)NCCC[C@@H](N)C(=O)O; d3Pal = N[C@H](Cc1cccnc1)C(=O)O

Tested on: patients undergoing COS/ART
Test: Phase II clinical trial of Cetrorelix in controlled ovarian stimulation / superovulation for assisted reproduction (COS/ART)
Format: in vivo, human (patients)
Description: The results of a phase II clinical trial are shown in Table I. A total of […] patients were treated. […] During multiple dosing, the mean days of Cetrorelix application is 6 days. 25 babies were born by the end of May 1996 (7 following multiple doses; 18 following single/dual doses). [table] […] [table] 238 patients were treated with Cetrorelix by subcutaneous injection of Cetrorelix […]-Lyophilisat. 134 patients were treated with multiple doses and 104 patients with single or dual doses. The multiple doses are 0.25 mg/day or higher. The single dose was 3 mg or higher. […] Multiple doses were applied for 3 to a maximum of 10 days dependent on follicular development.

[1] = multiple dose schedule, daily s.c., 3-7/14 days, phase II dose finding
[2] = single dose, posology 1 day, phase II dose finding

Compound: CC(=O)N[C@H](Cc1ccc2ccccc2c1)C(=O)N[C@H](Cc1ccc(Cl)cc1)C(=O)N[C@H](Cc1cccnc1)C(=O)N[C@@H](CO)C(=O)N[C@@H](Cc1ccc(O)cc1)C(=O)N[C@H](CCCNC(N)=O)C(=O)N[C@@H](CC(C)C)C(=O)N[C@@H](CCCNC(=N)N)C(=O)N1CCC[C@H]1C(=O)N[C@H](C)C(N)=O [Cetrorelix] (Ac-[d2Nal][dPhe(4-Cl)][d3Pal]SY[dCit]LRP[dA]-NH2)
- premature LH surge (FIG. 1) (FIG. 1): absolute prevention of any premature LH surge
- pregnancies (number) (all phase II patients, both regimens): 71 pregnancies
- minimal effective dose (Dose/Day) [1]: 0.25 min. effect. dose mg
- no effect dose (Dose/Day) [1]: 0.10 no effect. dose mg
- premature LH surge (multiple doses of 0.25 mg/day or higher): No premature LH surge was seen in any patient
- premature LH surge (single dose of 3 mg or higher): No premature LH surge was seen in any patient
- minimal effective dose [2]: 3 min. effective dose mg
- no effect dose [2]: 2 no effect. Dose mg
- babies born by the end of May 1996 (total): 25
